# Reference: patent US20070274947A1, “Antisense Oligonucleotides Directed to Ribonucleotide Reductase R1 and Uses Thereof in the Treatment of Cancer” (priority 2003, published 2007)
# Entries after “also recorded” stand apart in the source; their conditions may differ.
# Tests used:
# [1] = Acute intravenous toxicity study in the monkey (24-hour infusion, escalating doses); type: in vivo, Cynomolgus monkeys
# Experimental: The objective of this single, dose escalating study was to establish a maximum tolerated dose (MTD) for SEQ ID NO:1 and to assess the effect of administered SEQ ID NO:1 on the cardiac function of conscious Cynomolgus monkeys. […] There was a 3-day washout between doses. One female animal, administered vehicle only (PBS) in the same manner, was used as a control. Electrocardiogram (ECG) measurements were conducted on each animal (including control) prior to, during and after the end of each infusion interval. Clinical signs, mortality, body weight and food consumption measurements, hematology, coagulation and clinical chemistry parameter evaluations, were recorded and evaluated. In addition, blood samples were removed prior to and at the end of each infusion interval to measure complement (CH50 and Bb). Blood samples were also drawn at the end of each infusion for analysis of parent, SEQ ID NO:1.
# [2] = system: PC-3 human prostatic cancer cells; experiment: PC-3 prostate tumor growth in SCID mice; type: in vivo; conditions: 10 mg/kg i.v. every other day, 36 days, vs saline
# Experimental: PC-3 human prostatic cancer cells (1×10^7 cells in 100 μl of PBS) were subcutaneously injected into the right flank of 6-7 week old male SCID mice. After the tumor size reached an approximate volume of 50 mm^3, 14 days post tumor cell injection, SEQ ID NO:1 was administered by bolus infusion into the tail vein every other day at 10 mg/kg. Control animals received saline alone for the same period. Treatments lasted for 36 days thereafter. Antitumor activities were estimated by the inhibition of tumor volume, which was measured with a caliper on six different occasions over 36-day period. Each point represents mean tumor volume calculated from 5 animals per experimental group.
# [3] = system: DU145 human prostatic cancer cells; experiment: DU145 prostate tumor growth in SCID mice; type: in vivo
# Experimental: DU145 human prostatic cancer cells (1×10^7 cells in 100 μl of PBS) were subcutaneously injected into the right flank of 6-7 week old male SCID mice. After the size of the tumors reached an approximate volume of 50 mm^3, 13 days post tumor cell injection, SEQ ID NO:1 was administered by bolus infusion into the tail vein every other day at 10 mg/kg. Control animals received saline alone for the same period. Treatments lasted for 30 days thereafter. Antitumor activities were estimated by the inhibition of tumor volume, which was measured with a caliper on nine different occasions over 30-day period. Each point represents mean tumor volume calculated from 5 animals per experimental group.
# In both experiments, DU145 human prostatic cancer cells (1×10^7 cells in 100 μl of PBS) were subcutaneously injected into the right flank of 6-7 weeks old male SCID mice. After the size of tumor reached an approximate volume of 50 mm^3, 13 (upper panel) or 11 (lower panel) days post tumor cell injection, SEQ ID NO:1 was administered by bolus infusion into the tail vein every other day at 10 mg/kg 15 times (upper panel) or 14 times (lower panel), respectively. Control animals received saline alone for the same period. Antitumor effect of SEQ ID NO:1 was further compared to that of mitoxantrone (novantrone®) alone or in combination. Mitoxantrone was administered intravenously once at the beginning of the treatments at a dose of 2 mg/kg (upper panel) or once a week for four weeks at a reduced dose of 0.8 mg/kg (lower panel). All treatments were stopped at day 42 (upper panel) or 38 (lower panel), respectively. A day after the last treatment, tumors were excised from the animals and their weights were measured.
# R1 mRNA = R1 mRNA levels in HT-29 colon tumors in nude mice (Northern blot); type: in vivo, human; conditions: day 16, 10 mg/kg every other day, two independent HT-29 tumors
# Experimental: Effects of SEQ ID NO:1 administration on R1 mRNA levels in HT-29 colon tumors in nude mice were investigated.
# For determination of mRNA levels in tumors by Northern Blot, total RNA was prepared from excised tumors using TRIzol reagent (GIBCO BRL). Northern blot analysis was performed as previously described (Hurta and Wright, 1995). RNA was subjected to electrophoresis through 1% formaldehyde agarose gels followed by transfer to nylon membranes. Blots were hybridized in the presence of a R1 fragment (McClarty et al, 1987). Glyceraldehyde-3-phosphate dehydrogenase (GAPDH) mRNA levels were simultaneously probed for RNA loading controls.
# The results provide strong evidence that SEQ ID NO:1 is reaching the tumor site in vivo and is acting by an antisense mechanism of action.
# [4] = system: 28S rRNA, 18S rRNA, thioredoxin mRNA, β-actin mRNA, GAPDH mRNA, thioredoxin reductase mRNA, ribosomal protein S9 mRNA, RNase MRP RNA, RNase P RNA and R2 mRNA; experiment: Northern blot of other cellular RNAs in A2058 human melanoma cells (specificity); type: cell-based; conditions: 0.2 μM, 4 hr with Lipofectin
# Experimental: A2058 human melanoma cells, grown to subconfluency (70-80%), were treated with 0.2 μM of phosphorothioate antisense ODNs for 4 hr in the presence of cationic lipid (Lipofectin reagent, final concentration, 5 μg/ml, GIBCO BRL) and Opti-MEM (GIBCO BRL). Cells were washed once with PBS and incubated for 16 hr in α-MEM medium (GIBCO BRL) containing 10% FBS. Total RNA was prepared in TRIzol reagent (GIBCO BRL) and northern blot analysis was performed as previously described (Hurta and Wright, J. Cell. Biochem. 57: 543-56, 1995) with some modifications. RNA prepared from cells treated with lipofectin alone (Control), SEQ ID NO:1 and scrambled control analogue (SEQ ID NO:1 Scr) were subjected to electrophoresis through 1% formaldehyde agarose gels followed by transfer to nylon membrane. The blots were hybridized with ^32P-labeled probes that detect R1 mRNA, 28S rRNA, 18S rRNA, thioredoxin mRNA, […], GAPDH mRNA, thioredoxin reductase mRNA, ribosomal protein S9 mRNA, RNase MRP RNA, RNase P RNA and R2 mRNA.
# [5] = system: C8161 human metastatic melanoma cells; experiment: Experimental metastasis of C8161 cells, in vivo treatment (lung nodules, SCID mice); conditions: 10 mg/kg/48 hr from day 2, 5-7 weeks
# Experimental: B. C8161 human metastatic melanoma cells were seeded into 100 mm tissue culture dishes at a density of 2×10^6 and incubated overnight at 37° C. in α-MBM medium supplemented with 10% FBS. The cells were trypsinized, collected by centrifugation and aliquots were removed from the suspension to determine the cell viability using trypan blue exclusion test. Approximately, 1×10^5 cells suspended in 0.1 ml of PBS were injected into the tail veins of 6-8 week old female SCID mice. Treatment with saline or 10 mg/kg/48 hr SEQ ID NO:1 or SEQ ID NO:1-SCR (scrambled control) was initiated after 2 days. Estimates of the number of lung nodules were made 5-7 weeks later, after excised lungs from individual mice were stained with picric acid dye solution (75% picric acid, 20% formaldehyde, 5% glacial acetic acid), see FIG. 12B. The bars represent the mean number of nodules per mouse with standard error.
substance,measurement,setting,value
5′-CTCTAGCGTCTTAAAGCCGA-3′ (CTCTAGCGTCTTAAAGCCGA; chemistry not given here) [SEQ ID NO:1],complement values,"[1]; 80 mg/kg, one animal (female)",outside the normal range (higher Bb and lower CH50)
same,ECG recordings and blood pressure,[1]; 10-80 mg/kg,no treatment-related effects
same,"deaths, clinical signs, body weight, food consumption","[1]; 24-hour infusions of 10, 20, 40 and 80 mg/kg","no deaths, clinical signs, body weight changes, or effects on food consumption"
same,plasma concentrations at the end of infusion,[1]; escalating doses 10-80 mg/kg,increased with escalating dose levels
same,activated partial thromboplastin times,"[1]; following the last dose (Day 14), all values within normal ranges",apparent increasing trend
same,complement Bb and CH50 values,[1]; up to 40 mg/kg,within the reference range
same,inhibition of tumor volume,[2],strong inhibitory effects
same,inhibition of tumor volume,"[3]; SCID mice, 10 mg/kg i.v. every other day, 30 days, vs saline, 10 mg/kg",strong inhibitory effects
same,tumor weight / tumor growth,"[3]; upper panel FIG. 2, SEQ ID NO:1 10 mg/kg every other day 15 times, mitoxantrone 2 mg/kg i.v. once, vs saline",significant delay of tumor growth
same,delay in tumor growth compared with mitoxantrone alone,"[3]; upper panel FIG. 2, mitoxantrone 2 mg/kg once",superior to the inhibitory effects observed with mitoxantrone alone
same,R1 mRNA levels in tumors,R1 mRNA,marked reduction; also recorded: decreased R1 mRNA levels
same,expression of other cellular RNAs,[4],significant decrease in R1 mRNA but not other RNAs; also recorded: No effects were observed
same,number of lung nodules,[5],no visible lung nodules
